Source: ChEMBL document CHEMBL3286265, “Three new anti-proliferative Annonaceous acetogenins with mono-tetrahydrofuran ring from graviola fruit (Annona muricata)” (Bioorg Med Chem Lett, 2014)
Active and inactive are the calls of the source. The rule behind the calls is not given here.

These molecules were tested on PC-3 (assay: Antiproliferative activity against human PC3 cells at 20 ug/ml after 24 hrs by MTT assay).
Type: functional, cell-based

Structure (SMILES) | inhibition
CCCCCCCC[C@@H](O)[C@@H](O)CC[C@H](O)[C@H]1CC[C@H](CCCCCCCCCCC[C@H](O)CC2=C[C@H](C)OC2=O)O1 | Active
CCCCCCCCCCCC[C@H](O)[C@H]1CC[C@H]([C@H](O)CC(O)CCCCCCCC[C@H](O)CC2=C[C@H](C)OC2=O)O1 (stereo partly drawn) | Active
CCCCCCCC(O)CCCCCCC[C@@H](O)[C@H]1CC[C@H]([C@H](O)CCCCCCC[C@H](O)CC2=C[C@H](C)OC2=O)O1 (stereo partly drawn) | Active
